The subject of assay [1] is human MART1-specific CD8 T cells. Briefly: In vitro epitope presentation (MHC I) assay by human dendritic cells. To be noted: human monocyte-derived DCs loaded with 1 μM Zxx-MART1 for 4 h; intracellular staining for CD107, IFN-γ and TNF-α. The assay is classed as cell-based. The procedure:
Human monocyte-derived DCs were loaded with 1 μM of scramble-MART1, Z13-MART1, Z14-MART1, Z15-MART1 or Z18-MART1 for 4 h, wash and then incubated o.n. at 37° C. Specific TCR-transfected T cells were then added to DCs and incubated for 5 h with monensin and brefeldinA before intracellular FACS staining for CD107, IFN-γ and TNF-α.
In order to assess the capacity of the ZEBRA CPP truncations to promote epitope presentation by human DCs, the following constructs (Z13-MART1, Z14-MART1, Z15-MART1 and Z18-MART1, with each of the Z13, Z14, Z15 and Z18 CPP conjugated to the HLA-A2 epitope of the tumor associated antigen (TAA) MART1)) were synthesized:
These constructs (Z13, Z14, Z15, and Z18 CPPs conjugated to the HLA-A2 epitope of the tumor associated antigen (TAA) MART1) were assessed for their capacity to promote epitope presentation on MHC class I by human DCs. To this purpose, DCs from an HLA-A2+ donor were prepared from elutriated monocytes, cultured in CelIGro DC medium (CellGenix, Freiburg, Germany) with granulocyte-macrophage colony-stimulating factor (GM-CSF; 2500 U/ml) (Leucomax; Schering-Plough, Kenilworth, N.J.) and interleukin-4 (IL-4; 1000 U/ml) (CellGenix). The immature DCs were matured with cytokines: IL-1β (10 ng/ml), IL-6 (1000 U/ml), tumor necrosis factor α (TNFα; 10 ng/ml) (all from CellGenix) and prostaglandin E2 (1 μg/ml) (Sigma-Aldrich). DCs were rested in CellGro DC medium for 2 hours and loaded with 1 μM Scramble-MART1, Z13-MART1, Z14-MART1, Z15-MART-1 or Z18-MART1 for 4 hrs at 37° C. before being washed once and plated at 300 000 cells per well in round-bottomed 96-well plates. Non-peptide loaded DCs were used as a negative control. T cells were expanded from peripheral blood mononuclear cells using Dynabeads ClinExVivo CD3/CD28 (Life Technologies, Oslo, Norway). Expanded T cells (day 10 post activation) were transfected with the DMFS TCR specific for MART1 by mRNA electroporation. T cells were co-incubated with DCs at a ratio of 1:2 for 5 hours in the presence of GolgiPlug and GolgiStop (both BD Biosciences) before intracellular staining was performed using the following antibodies after FcR blocking; CD4 (RPAT4), CD8 (RPAT8), CD107a (H4A3) (BD Biosciences), IFN-γ (4S.B3) and TNF-α (MAb11) (BD Biosciences), all from eBioscience except where noted. Fixation and permabilization was performed using the PerFix kit from Beckman Coulter according to manufacturer's instructions. Cells were analysed using an LSR II flow cytometer (BD Biosciences) and results were processed with Kaluza (Beckman Coulter) software. All conditions were tested in duplicate, and the experiment was repeated up to three times.

The subject of assay [2] is OVA323-339-specific CD4+ T cells from OT-2 T cell TCR transgenic mice. Kind of assay: In vitro epitope presentation assay, MHC class II (BMDCs, proliferation of OT-2 T cells). In kind it is cell-based, mouse. The conditions noted are these: for in vitro proliferation of CD4 T cells (MHC class II presentation): BMDCs loaded 4 h with 300 nM ZxxOVACD8CD4, LPS o.n., 4 days. The procedure: (§1) BMDCs were loaded 4 h with 300nM of the different Zebra CPP truncation conjugated to both ovalbumin CD8 and CD4 epitopes (Z13OVACD8CD4, Z15OVACD8CD4 and Z18OVACD8CD4), then washed and incubated o.n. with 100 ng/ml of LPS. Efficient MHC class I or class II-restricted presentation was monitored after 4 days with CFSE-labeled naïve OVA257-264-specific CD8^+T cells from OT-1 T cell receptor (TCR) transgenic mice OT1 cells (A) or CFSE-labeled naïve OVA323-339-specific CD^+T cells from OT-2 T cell TCR transgenic mice respectively. As positive control, BMDCs were pulsed for 1 h with 5 uM peptide. Data from one experiment representative of three independent experiments.
(§2) In order to assess the capacity of the ZEBRA CPP truncations to stimulate an integrated immune response including CD4 T cells, antigenic cargoes were produced that included both CD8 and CD4 T cell epitopes from OVA, and conjugated to Z13, Z15 and Z18. Accordingly, the following constructs (Z13OVACD8CD4, Z15OVACD8CD4 and Z18OVACD8CD4) were synthesized:
(§3) Processing and presentation of the CD8 and CD4 T cell epitopes were monitored, as described in Example 2 for CD8 T cell epitopes, by measuring the in vitro proliferation of naïve OT-1 T cells (CD8 T cell epitopes; FIG. 4A) and OVA323-339-specific CD4^+ T cells from OT-2 T cell TCR transgenic mice, respectively (FIG. 4B). Briefly, OT-2 T cell TCR transgenic mice express TCR specific for MHC class II restricted OVA323-339.

In assay [3] the test system is CFSE-labeled naïve OVA257-264-specific CD8+ T cells from OT-1 TCR transgenic mice. Briefly: In vitro epitope presentation assay, MHC class I (BMDCs, proliferation of OT-1 T cells). The assay is classed as cell-based, mouse. The conditions noted are these: for in vitro proliferation of CD8 T cells (MHC class I presentation): BMDCs loaded 4 h with 300 nM ZxxOVACD8CD4, LPS o.n., 4 days. The procedure: as §1
BMDCs were loaded with 0.3 μM of each Zebra CPP truncation (Z13 to Z20) conjugated to OVACD8 epitope as described above for 4 hours at 37° C., washed 3 times, then matured overnight at 37° C. with 100 ng/ml LPS (from Salmonella abortus, equi S-form, Enzo Life Sciences). Antigen-loaded mature BMDC were then mixed at a ratio of 1:10 with OT-1 T cell receptor (TCR) transgenic mice splenocytes that had been stained with 10 μM 5-(and 6) Carboxyfluorescein diacetate succinimidyl ester (CFSE) (Life Technologies). After 4 days co-incubation of spleen cells and BMDCs, antigen-specific proliferation was assessed by flow cytometry, measuring CFSE dilution on CD8 T cells and live-gated cells. OT-1 mice express TCR specific for MHC class I restricted OVA257-264.
as §2, §3

The mark [4] stands for this setting: ZxxOVACD8CD4, 300 nM, compared with Z13 or Z15.

Turning to “KRYKNRVASRKSRAKFK (CPP Z15) [ZEBRA CPP truncation]”, in assay [1], the “stimulation of human MART1-specific CD8 T cells” value (from here on “stimulation”) is “particularly efficacious”. For the same sequence, the “in vitro proliferation of CD4 T cells (MHC class II presentation)” value (shortened to “in vitro proliferation of CD4 T cells”) in assay [2] was “proliferation of both CD8 and CD4 T cells occurred”. The “in vitro proliferation of CD8 T cells (MHC class I presentation)” value (shortened to “in vitro proliferation of CD8 T cells”) in assay [3] was “proliferation of both CD8 and CD4 T cells occurred”.
As to KRYKNRVASRKSRAKFKQLLQHYREVAAAK [Z14], the “stimulation” value in assay [1] is recorded as “particularly efficacious”.
Regarding “KRYKNRVASRKSRAKFKQLLQHYREVAAAKSSENDRLRLLLK [Z13]”, the “stimulation” value in assay [1] is on record as “particularly efficacious”. Also, the “in vitro proliferation of CD4 T cells” value in assay [2] is “proliferation of both CD8 and CD4 T cells occurred”. The “in vitro proliferation of CD8 T cells” value in assay [3] is “proliferation of both CD8 and CD4 T cells occurred”.
As for REVAAAKSSENDRLRLLLK [Z18], the “stimulation” value in assay [1] is “markedly less efficient”. For the same sequence, the “in vitro proliferation of CD4 T cells” value in assay [2] is “proliferation of both CD8 and CD4 T cells occurred”. Also, the “efficiency of DC transduction and cargo delivery into the MHC class II antigen processing pathway” value in assay [2] (setting [4]) is listed as “less efficient”. In addition, the “in vitro proliferation of CD8 T cells” value in assay [3] was “proliferation of both CD8 and CD4 T cells occurred”. Also, the “efficiency of DC transduction and cargo delivery into the MHC class I antigen processing pathway” value in assay [3] (setting [4]) is listed as “less efficient”.
